≈ marks a conversion by molar mass, not a printed value. Structures can show the parent of a compound that is named as a salt.
Experiments:
[1] = test system: Pseudomonas cepacia TMS 199, KM 425; experiment: Minimum Inhibitory Concentration by Agar Plate Dilution Method; assay type: cell-based; settings: Burkholderia cepacia
[2] = test system: Serratia species GN 629 (CSase); experiment: as above; assay type: cell-based; settings: GN629
mice = experiment: Acute toxicity, intraperitoneal administration to mice; assay type: in vivo; settings: six mice, intraperitoneally 1,000 mg/kg
Method: The toxicity of the compounds according to this invention is very low. None of the six mice administered intraperitoneally 1,000 mg/kg of the compound of Example 2 died. Therefore, the compounds of this invention have very low toxicity. In addition, they have a wide antibacterial spectrum and are very effective in treating infectious diseases, as compared with the conventional cephalosporin series antibiotics such as cephalotin, cefazolin, cephalexin and cephaloridine.

[3] = test system: Escherichia coli GN 206 (CSase); experiment: Minimum Inhibitory Concentration by Agar Plate Dilution Method; assay type: cell-based; settings: GN206
[4] = test system: Proteus morganii 1510 (CSase); experiment: as above; assay type: cell-based; settings: Morganella morganii
[5] = test system: Pseudomonas aeruginosa IAM-1007; experiment: as above; assay type: cell-based; settings: IAM1007
[6] = test system: Pseudomonas cepacia M-0527; experiment: as above; assay type: cell-based; settings: Burkholderia cepacia, M0527
[7] = test system: Staphylococcus aereus 209PJC-1; experiment: as above; assay type: cell-based; settings: 209PJC1
[8] = test system: Pseudomonas aeruginosa M-0025; experiment: as above; assay type: cell-based; settings: M0025
[9] = test system: Citrobacter freundii GN 346 (CSase); experiment: as above; assay type: cell-based; settings: GN346
[10] = test system: Proteus rettgeri GN 624 (CSase); experiment: as above; assay type: cell-based; settings: Providencia rettgeri, GN624
Proteus vulgaris OX 19 = experiment: as above; assay type: cell-based; settings: OX19
[11] = test system: Bacillus anthracis No. 119; experiment: microbe, parasite or virus in culture; assay type: cell-based; settings: NO.119, read-out: Minimum Inhibitory Concentration
[12] = test system: Serratia marcescens No. 1; experiment: Minimum Inhibitory Concentration by Agar Plate Dilution Method; assay type: cell-based
[13] = test system: Staphylococcus aereus Smith S-424; experiment: as above; assay type: cell-based; settings: SMITHS424
[14] = test system: Klebsiella pneumoniae GN 69 (PCase); experiment: as above; assay type: cell-based; settings: GN69
Maltophilia 604 = experiment: as above; assay type: cell-based
[15] = test system: Gram-positive and Gram-negative bacteria, including Pseudomonas aeruginosa; settings: conventional cephalosporin series antibiotics; cited from earlier work

SMILES	MIC [1] [µg/mL]	MIC [2] [µg/mL]	mice that died (mice)	MIC [3] [µg/mL]	MIC [4] [µg/mL]	MIC [5] [µg/mL]	MIC [6] [µg/mL]	MIC [7] [µg/mL]	MIC [8] [µg/mL]	MIC [9] [µg/mL]	MIC [10] [µg/mL]	MIC (Proteus vulgaris OX 19) [µg/mL]	MIC [11] [µg/mL]	MIC [12] [µg/mL]	MIC [13] [µg/mL]	MIC [14] [µg/mL]	MIC (Maltophilia 604) [µg/mL]	control of Gram-negative bacilli typified by Pseudomonas aeruginosa [15]
COc1ccc(-c2ccc(C(=O)N[C@@H](C(=O)NC3C(=O)N4C(C(=O)O)=C(CSc5nnnn5C)CSC34)c3ccc(O)cc3)c(=O)[nH]2)cc1OC (single isomer, unassigned) [Example 2, sodium salt of 7-{D(-)-α-[6-(3,4-dimethoxyphenyl)-1,2-dihydro-2-oxopyridine-3-carbonylamino]-p-hydroxyphenylacetamido}-3-(1-methyl-1,2,3,4-tetrazol-5-ylthiomethyl)-3-cephem-4-carboxylic acid]	6.25	12.5	None	3.13	25	6.25	6.25	0.78	3.13	3.13	12.5	0.78	1.56	3.13	0.78	12.5	6.25	
COc1ccc(COc2ccc(-c3ccc(C(=O)N[C@@H](C(=O)NC4C(=O)N5C(C(=O)O)=C(CSc6nnnn6C)CSC45)c4ccc(O)cc4)c(=O)[nH]3)cc2OC)cc1OC (single isomer, unassigned) [Example 5, sodium salt of 7-{D(-)-α-[6-[4-(3,4-dimethoxybenzyloxy)-3-methoxyphenyl]-1,2-dihydro-2-oxopyridine-3-carbonylamino]-p-hydroxyphenylacetamido}-3-(1-methyl-1,2,3,4-tetrazol-5-ylthiomethyl)-3-cephem-4-carboxylic acid]	6.25	12.5		0.2	12.5	12.5	6.25	0.78	3.13	0.78	3.13	0.39	0.2	3.13	0.78	6.25	12.5	
CCN1CCN(C(=O)N[C@@H](C(=O)N[C@@H]2C(=O)N3[C@@H]2SC(C)(C)[C@@H]3C(=O)O)c2ccccc2)C(=O)C1=O [Example T-1220, piperacillin, reference compound]		25 (≈ 48.3 µM)		25 (≈ 48.3 µM)	50 (≈ 96.6 µM)	12.5 (≈ 24.2 µM)	1.56 (≈ 3.01 µM)	0.78 (≈ 1.51 µM)	6.25 (≈ 12.1 µM)	100 (≈ 193 µM)	0.78 (≈ 1.51 µM)	1.56 (≈ 3.01 µM)	0.78 (≈ 1.51 µM)	1.56 (≈ 3.01 µM)	1.56 (≈ 3.01 µM)	50 (≈ 96.6 µM)	200 (≈ 386 µM)	
Cc1nnc(SCC2=C(C(=O)O)N3C(=O)[C@@H](NC(=O)Cn4cnnn4)[C@H]3SC2)s1 [cefazolin]																		cannot be controlled
CC1=C(C(=O)O)N2C(=O)[C@@H](NC(=O)[C@H](N)c3ccccc3)[C@H]2SC1 [cephalexin]																		cannot be controlled
O=C(Cc1cccs1)N[C@@H]1C(=O)N2C(C(=O)[O-])=C(C[n+]3ccccc3)CS[C@H]12 [cephaloridine]																		cannot be controlled
CC(=O)OCC1=C(C(=O)O)N2C(=O)[C@@H](NC(=O)Cc3cccs3)[C@H]2SC1 [cephalotin]																		cannot be controlled

From patent US4393058A, “Cephalosporin compounds” (Meiji Seika Kaisha, Ltd., priority 1979, dated 1983)
